Data as given in US8129557B2, “Phosphonic acid diester derivative and method for producing thereof” (priority 2005, dated 2012).
Marks after values point to notes of the source that are not given here.

What was measured:
E-coli GGT = target: T1, E-coli GGT (Escherichia coli, UniProt P18956); assay: Second-order rate constant kon of E-coli GGT inactivation (continuous or discontinuous assay); format: biochemical, Escherichia coli K-12; settings: for kon E-coli GGT: second-order rate constant for enzyme inactivation, pH 5.5, 25° C.
T1 construct: was used as a purified enzyme of E-coli GGT; made in house
T1 sequence (P18956 26-390 limits assumed): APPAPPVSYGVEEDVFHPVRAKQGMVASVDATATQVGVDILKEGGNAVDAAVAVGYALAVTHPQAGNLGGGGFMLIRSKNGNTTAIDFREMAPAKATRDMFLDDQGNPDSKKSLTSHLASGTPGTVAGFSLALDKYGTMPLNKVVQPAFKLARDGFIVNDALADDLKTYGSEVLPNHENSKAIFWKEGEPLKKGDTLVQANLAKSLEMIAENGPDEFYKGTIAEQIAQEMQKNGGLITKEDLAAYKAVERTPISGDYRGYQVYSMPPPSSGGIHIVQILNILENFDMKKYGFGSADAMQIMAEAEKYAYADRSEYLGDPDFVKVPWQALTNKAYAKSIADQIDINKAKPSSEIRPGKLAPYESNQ
T1 sequence (P18956 391-580 limits assumed): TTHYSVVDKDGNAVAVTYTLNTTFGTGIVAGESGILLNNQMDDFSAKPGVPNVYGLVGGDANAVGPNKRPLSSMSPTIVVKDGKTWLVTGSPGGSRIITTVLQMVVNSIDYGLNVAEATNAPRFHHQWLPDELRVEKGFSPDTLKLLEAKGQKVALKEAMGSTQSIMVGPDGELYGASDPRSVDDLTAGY
Text: (§1) Purified enzyme of E-coli GGT and crude enzyme of human GGT were employed as GGT samples for an inhibition experiment. The enzyme whose physicochemical properties are described in the Document (Hideyuki Suzuki, Hidehiko Kumagai, Tatsurokukro Tochikura “gamma-Glutamyltranspeptidase from Escherichia coli K-12: Purification and Properties” Journal of Bacteriology, December 1986, Vol. 168, No. 3, p. 1325-1331) was used as a purified enzyme of E-coli GGT. Enzyme [HC-GTP (product number), 603AA (lot number)] manufactured by Asahi Kasei Co., Ltd. was used as a crude enzyme of human GGT. The crude enzyme of human GGT contained a large amount of bovine serum albumin (BSA) to stabilize the enzyme, and the GGT concentration was 1% or lower.
In the hydrolytic assay of E. coli GGT, 10 μL of a […] enzyme solution was added to a 100 mM succinic acid-sodium hydroxide buffer solution (pH 5.5) in a total volume of 1 mL containing 100 μL of 2 μM substrate aqueous solution. The product, 7-amino-4-methylcoumarin (AMC), released along with the enzyme reaction was traced continuously at 25° C. using a fluorospectrophotometer F-2000 manufactured by Hitachi Ltd. (excitation wavelength: 350 nm, emission wavelength: 440 nm). The AMC concentration was separately measured by forming a calibration curve showing the relation of the fluorescence intensity (F) and the concentration (C) using standard solutions and was calculated from the relational expression (1) of the fluorescence intensity alteration (ΔF) and concentration alteration (ΔC).
(§2) Next, a second-order rate constant for enzyme inactivation kon was measured by either a continuous assay or a discontinuous assay. Both of the continuous and discontinuous assay for measuring inhibitory activity to GGT were carried out under a pseudo-first-order reaction condition.
(§3) In the continuous assay, while the temperature was kept at 25° C., the 100 mM succinic acid-sodium hydroxide buffer solutions (pH 5.5) containing an inhibitor in various concentrations and the substrate were preincubated for equilibrium. Herein, 0.2 μM of the substrate was used for the case of E-coli GGT and 0.4 μM of the substrate was used for the case of human GGT. Thereafter, the enzyme solution of the E-coli GGT was added in a manner that the final concentration became 0.04 nM and also the human GGT crude enzyme solution was added in a manner that the final concentration became 5 μg/mL. Accordingly, the reaction was started and the release of AMC (increase of the fluorescence intensity) was continuously traced for 10 minutes.
(§4) The fluorescence intensity data obtained from the respective curves was applied to the following pseudo-first-order rate equation (2) and the observed pseudo-first-order rate constant for enzyme inactivation (kobs) was calculated by nonlinear regression analysis [Stein, R. L. et al. Biochemistry 26, 2682-2689 (1987)].
(§5) [Equation 2] [P]=[P]∞[1−exp(−kobst)] (2)
(§6) When the kobs was plotted against to the inhibitor concentration ([I]), a linear relation was obtained until the maximum extent of the experimentally possible inhibitor concentration. Therefore, the second-order rate constant for enzyme inactivation kon was calculated using the following equation (3) deduced from the kinetic mechanism.
(§7) [drawing 37] [Equation 3] kobs=kon[I]/(1+[S]/Km) (3)
(§8) Herein, S denotes 7-(γ-L-glutamylamino)-4-methylcoumarin. The substrate concentration [S] for E-coli GGT is 0.2 μM and the Km value is 0.2 μM. […] The kinetic data was obtained by nonlinear regression analysis using Kaleida graph, a program produced by Synergy Software.
Further, in the discontinuous assay, an inhibitor in various concentrations was dissolved in 100 mM succinic acid-sodium hydroxide buffer solution (pH 5.5) and the enzyme solution was added to the resulting buffer solutions. […]

human GGT = target: T2, human GGT (Homo sapiens, UniProt P19440); assay: Second-order rate constant kon of human GGT inactivation (continuous or discontinuous assay); format: biochemical; settings: for kon Human GGT: second-order rate constant for enzyme inactivation, pH 5.5, 25° C.; for plot of log kon (human GGT) against pKa of aryl group, FIG. 4: position relative to the straight line
T2 construct: purchased Asahi Kasei Co., Ltd. HC-GTP (lot 603AA)
T2 sequence (P19440 1-380 limits assumed): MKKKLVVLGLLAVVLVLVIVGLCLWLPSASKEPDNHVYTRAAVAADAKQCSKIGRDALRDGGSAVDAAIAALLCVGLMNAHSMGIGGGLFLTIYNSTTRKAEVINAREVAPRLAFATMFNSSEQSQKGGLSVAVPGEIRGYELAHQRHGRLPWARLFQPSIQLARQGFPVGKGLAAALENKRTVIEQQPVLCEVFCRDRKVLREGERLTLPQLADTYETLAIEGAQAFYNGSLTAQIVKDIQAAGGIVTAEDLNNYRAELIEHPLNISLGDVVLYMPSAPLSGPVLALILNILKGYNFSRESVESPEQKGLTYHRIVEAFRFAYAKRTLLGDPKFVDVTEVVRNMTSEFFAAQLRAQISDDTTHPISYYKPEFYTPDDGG
T2 sequence (P19440 381-569 limits assumed): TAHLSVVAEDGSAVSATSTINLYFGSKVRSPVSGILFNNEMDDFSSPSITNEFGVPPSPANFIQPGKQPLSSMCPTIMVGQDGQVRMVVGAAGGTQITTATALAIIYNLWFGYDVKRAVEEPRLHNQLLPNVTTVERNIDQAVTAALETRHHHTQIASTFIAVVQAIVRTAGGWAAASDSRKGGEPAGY
Text: as §1
In the hydrolytic assay of human GGT, the measurement was carried out in the same manner as that in the hydrolytic assay of E-coli GGT, except that the substrate concentration was changed to […] and therefore, the explanation of the common portions was omitted.
as §2, §3, §4, §5, §6, §7, §8
Further, in the discontinuous assay, an inhibitor in various concentrations was dissolved in 100 mM succinic acid-sodium hydroxide buffer solution (pH 5.5) and the enzyme solution was added to the resulting buffer solutions. Herein, in the case of E-coli GGT, the enzyme solution was added in a manner that the final concentration became 0.4 nM and also the human GGT crude enzyme solution was added in a manner that the final concentration became 0.5 mg/mL. Accordingly, the reaction of the inhibitor and each GGT was conducted at 25° C. An aliquot (10 μL) of each of the reaction solutions were sampled at every specified time to measure the remaining enzyme activity by the above-mentioned enzyme activation method. The remaining enzyme activity at every time was analyzed by nonlinear regression using the pseudo-first-order rate equation (4) of enzyme inactivation to calculate the value of kobs.
[Equation 4] αt/α0=exp(−kobst) (4) […]

[1] = Chemical stability: hydrolysis ratio after storage in water at room temperature; format: physicochemical
Protocol: Herein, the hydrolysis ratios of the reactive compounds of Examples 1 to 11 were measured after the respective compounds were stored in water at room temperature. In this connection, the compounds other than the compound of Example 10 were stored in water for 12 hours and the compound of Example 10 was stored in water for 112 hours.

[2] = Hydrolysis ratio of Example 7 in alkaline, neutral or acidic solvent; format: physicochemical; settings: for Hydrolysis ratio (%): after 12 hours
Protocol: Herein, the compound of Example 7 was dissolved in a solvent shown in Table 4 and kept at 23.5° C., and the hydrolysis ratio of the compound of Example 7 was measured after 12 hours.

[3] = stored in water at room temperature for 12 hours

SMILES | kon E-coli GGT (E-coli GGT) | kon Human GGT (human GGT) | Hydrolysis ratio (%) [1, 3] | further results
N[C@H](C(=O)O)[C@@H]1CC(Cl)=NO1 [Comparative Example 1, (aS, 5S)-acivicin, reference compound] | 4210 ± 10 M^−1S^−1 | 0.40 ± 0.02 M^−1S^−1 | – | –
COP(=O)(CCC(N)C(=O)O)Oc1ccc(C)cc1 (stereo not shown) [Example 1, 2-amino-4-[methyl(4-methylphenyl)phosphono]butanoic Acid] | 23 M^−1S^−1 | 0.24 M^−1S^−1 | 0% | –
COc1ccc(OP(=O)(CCC(N)C(=O)O)OC)cc1 (stereo not shown) [Example 2, 2-amino-4-[(4-methoxyphenyl)(methyl)phosphono]butanoic Acid] | 19.5 M^−1S^−1 | 0.16 M^−1S^−1 | 0% | –
COP(=O)(CCC(N)C(=O)O)Oc1ccccc1 (stereo not shown) [Example 3, 2-amino-4-[methyl(phenyl)phosphono]butanoic Acid] | 115 M^−1S^−1 | 0.40 M^−1S^−1 | 0% | –
COP(=O)(CCC(N)C(=O)O)Oc1ccc(Cl)cc1 (stereo not shown) [Example 4, 2-amino-4-[(4-chlorophenyl)(methyl)phosphono]butanoic Acid] | 607 M^−1S^−1 | 5.0 M^−1S^−1 | 0% | –
COP(=O)(CCC(N)C(=O)O)Oc1ccc(C(F)(F)F)cc1 (stereo not shown) [Example 5, 2-amino-4-[methyl(4-trifluoromethylphenyl)phosphono]butanoic acid] | 2800 M^−1S^−1 | 11.5 M^−1S^−1 | 0% | –
COP(=O)(CCC(N)C(=O)O)Oc1ccc(C#N)cc1 (stereo not shown) [Example 6, 2-amino-4-[(4-cyanophenyl)(methyl)phosphono]butanoic Acid] | 12000 M^−1S^−1 | 45.9 M^−1S^−1 | 12.3% | –
COP(=O)(CCC(N)C(=O)O)Oc1ccc([N+](=O)[O-])cc1 (stereo not shown) [Example 7, 2-amino-4-[methyl(4-nitrophenyl)phosphono]butanoic Acid] | 35000 M^−1S^−1 | 125.1 M^−1S^−1 | 48.6% | Hydrolysis ratio (%) ([2]; 0.1 N CF3COOD, pH <1, 23.5° C.): 0%; Hydrolysis ratio (%) ([2]; 0.1 N CH3COOD, pH 2.9, 23.5° C.): 40%; Hydrolysis ratio (%) ([2]; 0.1 N DCl + MeOH, pH <1, 23.5° C.): 0%; Hydrolysis ratio (%) ([2]; 0.1 N DCl, pH <1, 23.5° C.): 0%; Hydrolysis ratio (%) ([2]; 0.1 N Na2CO3, pH 11.6, 23.5° C.): 100%; Hydrolysis ratio (%) ([2]; 0.1 N NaHCO3, pH 8.3, 23.5° C.): 100%; Hydrolysis ratio (%) ([2]; D2O, pH 7, 23.5° C.): 49%; hydrolysis ratio in words ([2]; under the acidic condition): low; hydrolysis ratio in words ([2]; under the alkaline condition): high
COP(=O)(CCC(N)C(=O)O)Oc1ccc2c(C)cc(=O)oc2c1 (stereo not shown) [Example 8, 2-amino-4-[methyl(4-methylumbelliferyl)phosphono]butanoic Acid] | 15700 M^−1S^−1 | 2400 M^−1S^−1 | 6.0% | mode of inhibition of E-coli GGT (activity plot, FIG. 1) (E-coli GGT; AMC fluorescence against time): irreversibly inactivate; mode of inhibition of human GGT (activity plot, FIG. 2) (human GGT; AMC fluorescence against time): irreversibly inactivate; plot of log kon (human GGT) against pKa of aryl group, FIG. 4 (human GGT): deviate upward
CCCCOP(=O)(CCC(N)C(=O)O)Oc1ccccc1 (stereo not shown) [Example 9, 2-amino-4-[butyl(phenyl)phosphono]butanoic Acid] | 9.0 M^−1S^−1 | 0.023 M^−1S^−1 | 0% | –
CCC(OP(=O)(CCC(N)C(=O)O)Oc1ccccc1)C(=O)NCC(=O)O (stereo not shown) [Example 10, 2-amino-4-[1-[N-(carboxymethyl)carbamoyl]propyl(phenyl)phosphono]butanoic acid] | 80.9 M^−1S^−1 | 74.5 M^−1S^−1 | – | plot of log kon (human GGT) against pKa of aryl group, FIG. 4 (human GGT): deviate upward; Hydrolysis ratio (%) ([1]; stored in water at room temperature for 112 hours): 37.5* %
COP(=O)(CCC(N)C(=O)O)Oc1ccc(CC(=O)O)cc1 (stereo not shown) [Example 12, 2-amino-4-{[4-(carboxymethyl)phenyl](methyl)phosphono}butanoic Acid] | 200 M^−1S^−1 | 0.33 M^−1S^−1 | – | –
COP(=O)(CCC(N)C(=O)O)Oc1ccc(C(=O)O)cc1 (stereo not shown) [Example 13, 2-amino-4-[4-carboxyphenyl(methyl)phosphono]butanoic Acid] | 3200 M^−1S^−1 | 5.2 M^−1S^−1 | – | –
COP(=O)(CCC(N)C(=O)O)Oc1cccc([N+](=O)[O-])c1 (stereo not shown) [Example 14, 2-amino-4-[methyl(3-nitrophenyl)phosphono]butanoic Acid] | 5100 M^−1S^−1 | 49 M^−1S^−1 | – | –
COP(=O)(CCC(N)C(=O)O)Oc1cccc(C(=O)O)c1 (stereo not shown) [Example 15, 2-amino-4-[3-carboxyphenyl(methyl)phosphono]butanoic Acid] | 450 M^−1S^−1 | 1.63 M^−1S^−1 | – | –
COP(=O)(CCC(N)C(=O)O)Oc1cccc(CCC(=O)O)c1 (stereo not shown) [Example 16, 2-amino-4-{[3-(2-carboxyethyl)phenyl](methyl)phosphono}butanoic Acid] | 71 M^−1S^−1 | 7.67 M^−1S^−1 | – | plot of log kon (human GGT) against pKa of aryl group, FIG. 4 (human GGT): deviate upward
NC(CCP(=O)(Oc1ccccc1)Oc1ccccc1)C(=O)O (stereo not shown) [Example 17, 2-amino-4-(diphenylphosphono)butanoic Acid] | 28 M^−1S^−1 | 0.41 M^−1S^−1 | – | –
